From PMC7948948 (The Journal of Biological Chemistry, 2021)
Converted amounts (≈) assume the structure as drawn. “And” between values parts separate entries of the source, which are not always exact repeats. Equal values may be shown once. “Also recorded” adds a separate entry of the source. Read-outs that look alike come from different tables or passages of the source.

Legend:
N[C@@H](Cc1ccccc1)C(=O)O = test: purified protein, by the assay type
hFARS1 = target: T1, hFARS1 (Homo sapiens, UniProt Q9Y285); test: biochemical; conditions: for IC50: 50 nM enzyme, 2 μM ATP, 20 μM L-Phe, 1 mg/ml yeast total tRNA, 1 h, read-out: IC50, Kinase Glo, hFARS1
T1 sequence (Q9Y285 1-508): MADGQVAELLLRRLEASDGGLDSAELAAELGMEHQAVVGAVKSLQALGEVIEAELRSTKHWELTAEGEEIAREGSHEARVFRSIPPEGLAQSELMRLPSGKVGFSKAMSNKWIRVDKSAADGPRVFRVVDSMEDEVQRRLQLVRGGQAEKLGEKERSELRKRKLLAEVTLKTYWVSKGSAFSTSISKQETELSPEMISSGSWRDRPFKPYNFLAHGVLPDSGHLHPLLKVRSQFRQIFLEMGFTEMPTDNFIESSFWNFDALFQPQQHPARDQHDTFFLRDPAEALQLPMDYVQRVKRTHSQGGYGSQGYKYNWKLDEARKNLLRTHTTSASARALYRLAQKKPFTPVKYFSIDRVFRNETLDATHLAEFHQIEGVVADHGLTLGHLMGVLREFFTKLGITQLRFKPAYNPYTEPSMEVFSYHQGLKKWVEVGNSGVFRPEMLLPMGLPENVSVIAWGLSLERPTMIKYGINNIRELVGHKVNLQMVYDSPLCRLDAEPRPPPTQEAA
T1 sequence (Q9NSD9 1-589 partner): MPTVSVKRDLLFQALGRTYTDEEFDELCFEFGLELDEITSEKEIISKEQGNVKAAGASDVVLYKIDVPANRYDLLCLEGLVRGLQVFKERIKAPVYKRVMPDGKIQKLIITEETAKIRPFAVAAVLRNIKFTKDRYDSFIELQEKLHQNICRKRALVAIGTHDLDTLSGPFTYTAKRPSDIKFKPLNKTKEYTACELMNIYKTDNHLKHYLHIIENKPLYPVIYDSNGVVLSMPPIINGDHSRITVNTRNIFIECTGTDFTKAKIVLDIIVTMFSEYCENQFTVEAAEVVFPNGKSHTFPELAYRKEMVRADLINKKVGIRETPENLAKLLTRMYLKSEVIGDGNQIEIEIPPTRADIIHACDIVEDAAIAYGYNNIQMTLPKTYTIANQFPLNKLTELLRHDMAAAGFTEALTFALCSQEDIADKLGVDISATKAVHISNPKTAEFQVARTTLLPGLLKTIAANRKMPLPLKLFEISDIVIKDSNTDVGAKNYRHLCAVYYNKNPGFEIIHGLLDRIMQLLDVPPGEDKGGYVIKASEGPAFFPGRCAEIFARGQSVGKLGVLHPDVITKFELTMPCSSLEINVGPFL

Mtb PheRS [1] = target: T2, Mtb PheRS (Mycobacterium tuberculosis, UniProt P9WFU3); conditions: for Mode of inhibition with regard to Phe / Mode of inhibition with regard to ATP: Lineweaver-Burk plot; for Mode of inhibition with regard to ATP: no sulfate added
T2 sequence (P9WFU3 whole entry): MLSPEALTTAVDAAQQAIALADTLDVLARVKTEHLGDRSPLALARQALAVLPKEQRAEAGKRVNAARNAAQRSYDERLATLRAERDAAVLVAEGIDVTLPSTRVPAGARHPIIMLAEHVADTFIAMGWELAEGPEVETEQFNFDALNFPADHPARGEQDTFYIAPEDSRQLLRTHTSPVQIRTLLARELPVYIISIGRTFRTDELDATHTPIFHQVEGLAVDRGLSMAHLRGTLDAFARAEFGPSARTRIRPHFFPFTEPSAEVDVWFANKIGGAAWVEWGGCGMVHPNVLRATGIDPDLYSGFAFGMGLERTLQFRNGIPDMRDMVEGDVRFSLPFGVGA
T2 sequence (P9WFU1 whole entry, further chain): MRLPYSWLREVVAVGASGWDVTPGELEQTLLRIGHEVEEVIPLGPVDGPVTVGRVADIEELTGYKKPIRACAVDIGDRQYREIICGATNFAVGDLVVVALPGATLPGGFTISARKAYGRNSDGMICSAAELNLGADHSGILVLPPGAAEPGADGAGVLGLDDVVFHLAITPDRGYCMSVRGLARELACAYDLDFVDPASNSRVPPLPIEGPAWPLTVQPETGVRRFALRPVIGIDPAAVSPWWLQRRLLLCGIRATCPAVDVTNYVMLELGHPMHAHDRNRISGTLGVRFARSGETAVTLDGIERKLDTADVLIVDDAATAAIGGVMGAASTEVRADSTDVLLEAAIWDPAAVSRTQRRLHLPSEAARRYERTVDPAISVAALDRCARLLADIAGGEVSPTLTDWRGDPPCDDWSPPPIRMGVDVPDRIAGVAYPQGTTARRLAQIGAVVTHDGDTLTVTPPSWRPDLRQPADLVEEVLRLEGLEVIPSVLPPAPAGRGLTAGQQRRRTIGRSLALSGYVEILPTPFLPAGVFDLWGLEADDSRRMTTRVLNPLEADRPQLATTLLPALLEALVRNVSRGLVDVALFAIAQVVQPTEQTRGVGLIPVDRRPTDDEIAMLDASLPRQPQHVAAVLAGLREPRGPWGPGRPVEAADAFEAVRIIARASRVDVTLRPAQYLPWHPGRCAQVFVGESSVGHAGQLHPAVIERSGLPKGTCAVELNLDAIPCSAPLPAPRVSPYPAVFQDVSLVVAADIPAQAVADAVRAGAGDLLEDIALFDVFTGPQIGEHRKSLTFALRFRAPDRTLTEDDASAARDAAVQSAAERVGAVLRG

Mtb PheRS [2] = target: T2, Mtb PheRS; test: biochemical
Mtb PheRS [3] = target: T2, Mtb PheRS; test: ATP consumption assay (Kinase-Glo), Mtb PheRS; format: biochemical
Mtb H37Rv = test: MIC by microplate alamarBlue assay; format: cell-based, Mycobacterium tuberculosis; conditions: for MIC: Mycobacterium tuberculosis, H37RV, n = 3, read-out: MIC against Mtb H37Rv
Mtb PheRS [4] = target: T2, Mtb PheRS; test: biochemical; conditions: read-out: IC50, AMP Glo, Mtb PheRS
hFARS2 = target: T3, hFARS2 (Homo sapiens, UniProt O95363); test: biochemical; conditions: for IC50: E. coli total tRNA 0.5 mg/ml, 1 h, read-out: IC50, Kinase Glo, hFARS2
T3 sequence (O95363 38-451 limits assumed): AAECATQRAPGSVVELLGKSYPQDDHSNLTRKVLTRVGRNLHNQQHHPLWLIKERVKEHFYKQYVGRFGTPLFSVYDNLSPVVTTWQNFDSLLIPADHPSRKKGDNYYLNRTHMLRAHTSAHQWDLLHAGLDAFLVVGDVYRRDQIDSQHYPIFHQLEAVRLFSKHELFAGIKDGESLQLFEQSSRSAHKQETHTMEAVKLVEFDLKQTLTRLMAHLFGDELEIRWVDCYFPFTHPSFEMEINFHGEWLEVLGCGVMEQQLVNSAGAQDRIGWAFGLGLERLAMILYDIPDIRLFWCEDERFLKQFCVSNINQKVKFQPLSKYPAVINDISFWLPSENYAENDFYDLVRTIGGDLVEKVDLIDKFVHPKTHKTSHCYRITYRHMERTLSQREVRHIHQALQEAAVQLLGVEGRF

Mtb PheRS [5] = target: T2, Mtb PheRS; test: biochemical; conditions: read-out: IC50, Malachite Green, Mtb PheRS
Mtb PheRS [6] = target: T2, Mtb PheRS; conditions: for Km: read-out: Km, aminoacylation assay
in vitro [7] = format: cell-based
Protocol: (§1) HEK293T, Vero E6, and HepG2 cells were cultured in Dulbecco's modified Eagle's medium plus 10% fetal bovine serum and 1% penicillin/streptomycin at 37 °C with 5% CO2. Plates of 96 wells were plated with 100 μl 1 × 10^5 cells/ml per well and incubated for 24 h before adding compound in serial dilutions. After another 48 h, 40 μl reagents of CellTiter-Glo cell viability assay (Promega) was added, and the plates were shaken at 400 rpm for 10 min in the dark. Luminescence was recorded with plate reader. The data were analyzed with GraphPad Prism 9.

[8] = Cytotoxicity, CellTiter-Glo, Vero E6; format: cell-based; conditions: African green monkey, Vero E6 cells
Protocol: as §1
(§2) HepG2 (A and B) is an immortal cell line derived from human liver cells. HEK-293T (C and
(§3) D) is a human embryonic kidney 293 cell line. Vero E6 is a cell line derived from African
(§4) green monkey kidney epithelial cells. […]

luciferase = test: Counter-screen of Kinase-Glo coupled reaction, Mtb PheRS omitted; format: biochemical; conditions: concentrations up to 20 μM
HEK-293T = test: in vitro; format: cell-based, human; conditions: 48 h
Protocol: as §1, §2, §3, §4

in vitro [9] = format: cell-based, human; conditions: human
Protocol: as §1, §2, §3, §4

PPase, PNPase = test: Counter-screen of PPi production coupled reaction, Mtb PheRS omitted; format: biochemical; conditions: concentrations up to 20 μM
in vitro [10] = format: cell-based; conditions: human
Protocol: as §1, §2, §3, §4

WT H37Rv = test: microbe, parasite or virus in culture; format: cell-based; conditions: Mycobacterium tuberculosis, 264 h, absorbance at 580 nm, 11 days, Gompertz fit
HepG2 = test: in vitro; format: cell-based; conditions: human, 48 h
Protocol: as §1, §2, §3, §4

human FAAH = conditions: cited from earlier work

With “Mtb PheRS (Mycobacterium tuberculosis H37Rv)” the Km (N[C@@H](Cc1ccccc1)C(=O)O) was 68.0 ± 6.6 µM, the kcat (N[C@@H](Cc1ccccc1)C(=O)O) was 1.1 ± 0.0517 s⁻¹ and the kcat/Km (N[C@@H](Cc1ccccc1)C(=O)O) was 16200 M⁻¹ s⁻¹.

In the case of `O=C(Nc1cccc(S(=O)(=O)NCCc2c[nH]c3ccccc23)c1)Nc1nccs1` [GDI05-001], the IC50 (hFARS1) is reported as greater than 200 µM, the “Mode of inhibition with regard to Phe” value (Mtb PheRS [1]) is reported as “Phe competitive inhibitors” and the “Mode of inhibition with regard to ATP” value (Mtb PheRS [1]) is reported as “noncompetitive”. For the same compound, the IC50 (Mtb PheRS [2]) was 1.34 µM, the Ki (Mtb PheRS [2]; Ki in the Phe-competitive mode) was 0.2 ± 0.01 µM and the IC50 (Mtb PheRS [3]) was 1.72 ± 0.13 µM. For the same compound, the MIC (Mtb H37Rv) was 145 µM (≈ 64 µg/mL), the IC50 (Mtb PheRS [4]) was 0.87 ± 0.06 µM and the IC50 (hFARS2) was 85.4 µM. The IC50 (Mtb PheRS [5]) was 0.52 ± 0.06 µM.

For `Nc1ncnc2c1ncn2[C@@H]1O[C@H](COP(=O)(O)OP(=O)(O)OP(=O)(O)O)[C@@H](O)[C@H]1O` [ATP], the Km (Mtb PheRS [1]; read-out: apparent Km, PPi production assay) was 162 ± 11.6 µM, the Km (Mtb PheRS [6]) was 387 ± 279 µM and the “kcat, aminoacylation assay” value (Mtb PheRS [6]; substrate of Mtb PheRS) was 0.405 ± 0.417 s⁻¹.

For `O=C(Nc1cccnc1)N1CCC(Cc2cccc(Oc3ccc(C(F)(F)F)cn3)c2)CC1` [PF-3845], the CC50 (in vitro [7]; human, African green monkey) was 16.9 to 25.8 µM, the CC50 (in vitro [7]; two human cell lines, preliminary result, read-out: CC50 against human cell lines (range)) was 16.9 to 21.7 µM and the CC50 at 48 h [8] was 21.7 µM. For the same compound, the IC50 (hFARS1) was greater than 200 µM, the “Inhibition of human cytoplasmic PheRS” value (hFARS1; concentrations up to 200 μM) was “does not inhibit” and the “Mode of inhibition with regard to tRNAPhe” value (Mtb PheRS [1]) was “uncompetitive inhibitor; also recorded: uncompetitive inhibition mode”. The “Mode of inhibition with regard to ATP in the presence of sulfate” value (Mtb PheRS [1]; 5 mM (NH4)2SO4) was “competitive inhibition mode; also recorded: ATP competitive inhibitor”, the “Mode of inhibition with regard to Phe” value (Mtb PheRS [1]) was “Phe competitive inhibitors; also recorded: competitive inhibition mode” and the “Mode of inhibition with regard to ATP” value (Mtb PheRS [1]) was “mixed inhibition mode”. For the same compound, the “Inhibition of luciferase (Kinase-Glo coupled reaction)” value (luciferase) was “did not inhibit”, the IC50 (Mtb PheRS [2]) was 2.4 µM and the Ki (Mtb PheRS [2]; Ki in the Phe-competitive mode) was 1.7 ± 0.11 µM. The Ki (Mtb PheRS [2]; Ki with regard to ATP when SO4 2- was absent, mixed inhibition mode, no sulfate) was 1.08 ± 0.245 µM, the Ki (Mtb PheRS [2]; Ki with regard to ATP, competitive, with sulfate, 5 mM (NH4)2SO4 in the PheRS enzyme reaction) was ~0.73 µM and 0.73 µM and the CC50 (HEK-293T; CellTiter-Glo, read-out: CC50, HEK-293T) was 16.9 µM. For the same compound, the CC50 (in vitro [9]; 48 h, CellTiter-Glo, read-out: CC50, HEK-293T) was 16.9 ± 1.54 µM, the “Inhibition of PPase and PNPase (PPi production coupled reaction)” value (PPase, PNPase) was “did not inhibit” and the IC50 (Mtb PheRS [3]) was 2.65 ± 0.19 µM. The MIC (Mtb H37Rv) was roughly 24 µM (≈ 11 µg/mL), the “MIC against Mtb H37Rv” value (Mtb H37Rv; n = 3) was roughly 23.87 µM (≈ 10.9 µg/mL) and the IC50 (Mtb PheRS [4]) was 2.49 ± 0.19 µM. For the same compound, the CC50 (in vitro [10]; 48 h, CellTiter-Glo, read-out: CC50, HepG2) was 21.7 ± 1.53 µM, the IC50 (hFARS2) was greater than 200 µM and the “Inhibition of human mitochondrial PheRS” value (hFARS2; concentrations up to 200 μM) was “does not inhibit”. For the same compound, the IC50 (Mtb PheRS [5]) was 1.95 ± 0.19 µM and the MIC (WT H37Rv) was 220 µM (≈ 100 µg/mL).

`O=C(Nc1cccnn1)N1CCC(=Cc2cccc(Oc3ccc(C(F)(F)F)cn3)c2)CC1` [PF-04457845] showed a CC50 at 48 h (in vitro [7]; human) of 23.6 to 25.8 µM, a CC50 (in vitro [7]; human, African green monkey) of 16.9 to 25.8 µM and an IC50 (hFARS1) greater than 200 µM. The IC50 (Mtb PheRS [2]) was 12 µM, the CC50 (HEK-293T; human) was 23.6 µM and the CC50 at 48 h (in vitro [9]; CC50, HEK-293T) was 23.6 ± 1.93 µM. For the same compound, the IC50 (Mtb PheRS [3]) was 9.76 ± 0.73 µM, the IC50 (Mtb PheRS [4]) was 10.1 ± 1.02 µM and the CC50 at 48 h (in vitro [10]; CC50, HepG2) was 25.8 ± 2.88 µM. For the same compound, the CC50 (HepG2) was 25.8 µM, the IC50 (hFARS2) was greater than 200 µM and the “kinact/Ki for covalent inhibition of human FAAH” value (human FAAH) was 40,300 M^−1s^−1. For the same compound, the IC50 (Mtb PheRS [5]) was 11.7 ± 1.43 µM.

With (Mycobacterium tuberculosis H37Rv) the Km (N[C@@H](Cc1ccccc1)C(=O)O; pH 7.4) was 18.10 ± 2.44 µM.

For `N[C@@H](Cc1ccccc1)C(=O)O` [Phe, phenylalanine], the Km (Mtb PheRS [6]) was 68 ± 6.6 µM.
